In US20260315446A1, “ANTIFUNGAL COMPOUNDS AND USES THEREOF” (priority 2023, published 2026):
Entries after “also recorded” stand apart in the source; their conditions may differ. Where two headings read alike, the source gives them in different places.

Assays:
[1] = tested on: germinal center (GC) B cells; experiment: In vivo immunosuppression, germinal center B cells (Example 1); parameters: species or system mouse (C57BL/6); details: daily i.p., FK506 5 mg/kg or JH-FK-05 60 mg/kg; day 7
Protocol: Based on the in vitro evidence of reduced immunosuppressive activity of JH-FK-05, it was hypothesized that this reduction would translate into reduced immunosuppression in an in vivo model. The murine model for immunosuppression measures the T cell-dependent proliferation of two immune cell subtypes in response to immunization with an antigen. Animals were treated daily via intraperitoneal (i.p.) injection with vehicle, 5 mg/kg FK506, or 60 mg/kg JH-FK-05, beginning on day −1 and ending on day 7. […] On day 0, animals were immunized with NP-OVA to stimulate T cell-dependent signaling that would result in proliferation of T follicular helper (Tfh) cells and germinal center (GC) B cells. Animals were sacrificed on day 7, and the proportions of Tfh and GC B cells in the lymph nodes were measured. […]
Groups of 6 female C57BL/6 mice (Jackson Laboratory) were treated daily by intraperitoneal (i.p.) injection with about 100 μL vehicle, 5 mg/kg FK506, or 60 mg/kg JH-FK-05 beginning on day −1. […] Mice were treated and monitored daily until they were sacrificed on day 7. Draining lymph nodes were harvested on day 7, and the populations of T follicular helper cells and GC B cells were analyzed by flow cytometry. Tfh and GC B cells were measured from T Cell Receptor β (TCRβ^+) CD4^+CD44^hi cells and TCRβ^−CD19^+ cells, respectively.

[2] = Pharmacokinetics in whole blood; assay type: in vivo, mouse (CD-1); details: for Cmax / Tmax / AUC / CL/F / half-life: mouse, in vivo, ip, 40 mg/kg, 40 mg/kg i.p. single dose, whole blood; for AUC: read-out: AUC (area under the curve); for CL/F: read-out: CI/F (clearance as Dose/AUCINF) (converted)
Protocol: For the lead compound JH-FK-08, the mechanism of action resulting in antifungal activity was tested for conservation of calcineurin inhibition. To probe the JH-FK-08 mechanism of action, MICs of JH-FK-08 were determined with fungal mutants that lack the drug-binding protein FKBP12 or have mutations in the binding site on calcineurin that prevent FKBP12-FK506 binding and inhibition. […] Taken together, these findings support the hypothesis that JH-FK-08 requires FKBP12 for antifungal activity, and the target of the FKBP12-JH-FK-08 complex is calcineurin. The length of time that drugs are active in vivo is critical information relevant to drug development, and the time frame of drug activity can have a drastic impact on treatment regimen and efficacy. Therefore, the pharmacokinetic profiles of FK506 and JH-FK-08 were investigated. Three male and three female CD1 mice were administered a single dose of JH-FK-08 or FK506 at 40 mg/kg. Whole blood samples were taken over a 24-hour period, and the drug concentration remaining in the blood was determined. Pharmacokinetic parameters were calculated using a non-compartmental approach (see, Gabrielsson J, Weiner D. 2012. Methods Mot Biol Clifton NJ 929:377-389). […] When assessing specific pharmacokinetic measures, sex differences began to emerge.
Male (n=3, avg. 28 g) and female (n=3, avg. 25 g) CD-1 mice were injected intraperitoneally with 40 mg/kg of either JH-FK-08 or FK506. The drug formulation was 10% Kolliphor/10% ethanol/80% PBS given as 10 μL/g body weight (i.e., 200 μL per 20 g mouse). Blood (~30 μL) was collected serially (“tail snip”) at 10, 20, and 45 min and 1.5, 3, 6, 12, and 24 h into vials containing […] of 75 mg/mL K2EDTA in water and immediately frozen until the day of liquid chromatography-tandem-mass spectroscopy (LC/MS/MS) analysis. Blood concentration/time data were utilized to calculate relevant PK parameters using the non-compartmental approach and extravascular administration model within WinNonlin (2.1) software.
In a 0.5-mL polypropylene vial, 10 μL blood and 20 μL of acetonitrile fortified with 100 ng/mL FK520 (internal standard) were vigorously agitated in the FastPrep FP120 apparatus (Thermo-Savant) at speed four for 45 s. After centrifugation for 5 min at 16,000 rpm, 20 μL of supernatant was transferred to a polypropylene autosampler vial. LC/MS/MS (Agilent 1200 series HPLC and Sciex/Applied Biosystems API 5500 QTrap) was utilized to quantify JH-FK-08 and FK506 in mouse blood. Analytical column: Agilent Eclipse Plus (C18, 1.8 μm, 50×4.6 mm), at 40° C. Mobile phase: (A) 0.1% formic acid, 10 mM ammonium acetate, 2% acetonitrile in water, and (B) methanol. Elution gradient: 0-0.1 min 30%-98% B, 0.1-1.5 min 98% B, 1.5-1.6 min 98%-30% B, and 1.6-2.1 min 30% B. Run time: 5 min. Injection volume: 10 μL. Mass spectrometer parameters (voltages, gas flow, and temperature) were optimized by infusion of 100 ng/mL of analytes in the mobile phase at 10 μL/min using the Analyst 1.6.2 software tuning module. The MS/MS (m/z) transitions used for quantification were 864.4/846.5 (JH-FK-08), 821.4/768.5 (FK506), and 809.4/756.5 (FK520, internal standard). A set of calibrator samples in drug-free blood was prepared by adding appropriate amounts of pure analyte (JH-FK-08 or FK506) in the […] range. The calibration samples were analyzed alongside the experimental samples. The accuracy acceptance criterion was 85% for each but the lowest level (2.43 ng/mL, 80%, LLOQ). Analyst 1.6.2 software was used for data acquisition, integration of the chromatograms, calibration curve calculation, and quantification of the study samples.

[3] = females, read-out: t1/2 (3-12 h) (half-life) (converted)
[4] = females, read-out: t1/2 (12-24 h) (half-life) (converted)
[5] = males, read-out: t1/2 (3-12 h) (half-life) (converted)
[6] = males, read-out: t1/2 (12-24 h) (half-life) (converted)

In the case of `C=CCC1C=C(C)CC(C)CC(OC)C2OC(O)(C(=O)C(=O)N3CCCCC3C(=O)OC(C(C)=CC3CCC(O)C(OC)C3)C(C)C(O)CC1=O)C(C)CC2OC` (stereo not drawn) [FK506, reference compound], the “proliferation/presence of GC B cells” value [1] is reported as “significantly reduced the proliferation”, the Cmax ([2]; females) is reported as 5960 ng/mL and the Tmax ([2]; females) is reported as 1.11 h. The AUC ([2]; females) was 27100 ng·h/mL, the CL/F ([2]; females) was 25.9 mL/min/kg and the half-life [2, 3] was 81 min. The half-life [2, 4] was 215 min, the Cmax ([2]; males) was 4510 ng/mL and the Tmax ([2]; males) was 0.75 h. For the same molecule, the AUC ([2]; males) was 15200 ng·h/mL, the CL/F ([2]; males) was 49.4 mL/min/kg and the half-life [2, 5] was 88.8 min. It also gave a half-life [2, 6] of 148 min.

For `CC[C@@H]1/C=C(\C)C[C@H](C)C[C@H](OC)[C@H]2O[C@@](O)(C(=O)C(=O)N3CCCC[C@H]3C(=O)O[C@H](/C(C)=C/[C@@H]3CC[C@@H](O)[C@H](OC)C3)[C@H](C)[C@@H](O)C/C1=N/NC(C)=O)[C@H](C)C[C@@H]2OC` [JH-FK-05], the “proliferation/presence of GC B cells” value [1] was “did not reduce the presence of either cell type and was statistically indistinguishable from the vehicle treatment”.

For `CC[C@@H]1/C=C(\C)C[C@H](C)C[C@H](OC)[C@H]2O[C@@](O)(C(=O)C(=O)N3CCCC[C@H]3C(=O)O[C@H](/C(C)=C/C3CC[C@@H](O)[C@H](OC)C3)[C@H](C)[C@@H](O)C/C1=N/NC(=O)OC)[C@H](C)C[C@@H]2OC` (stereo partly drawn) [JH-FK-08], the “whole blood drug concentration over time versus FK506” value ([2]; 40 mg/kg single dose) was “No significant differences across groups were observed in whole blood samples of drug concentration over time; also recorded: no statistically significant difference between groups”, the Cmax ([2]; females) was 7500 ng/mL and the Tmax ([2]; females) was 2.5 h. For the same molecule, the AUC ([2]; females) was 31400 ng·h/mL, the CL/F ([2]; females) was 21.5 mL/min/kg and the half-life [2, 3] was 68.4 min. The half-life [2, 4] was 113 min, the Cmax ([2]; males) was 4070 ng/mL and the Tmax ([2]; males) was 1.25 h. The AUC ([2]; males) was 15600 ng·h/mL, the CL/F ([2]; males) was 46.4 mL/min/kg and the half-life [2, 5] was 77.4 min. It also gave a half-life [2, 6] of 136 min.
